Measurements as given in US20220409649A1, “a-GLUCOSIDASE INHIBITOR, INVERTASE INHIBITOR, AND SUGAR ABSORPTION INHIBITOR” (Kinki University, priority 2019, published 2022).

Assays:
invertase = invertase (Saccharomyces cerevisiae, UniProt P00724); test: Invertase inhibition analysis by compound (I); format: biochemical
Protocol: For invertase inhibition analysis, 100 μg of sucrose as a substrate and 1 μg, 10 μg, or 100 μg of the compound (I) being the invertase inhibitor were added to 50 μL of 100 mmol/L acetate buffer solution, and pre-incubation was performed at 37° C. for five minutes. Thereafter, 50 μL of 0.2 U/mL invertase solution was added, and incubation was performed for 15 minutes. Thereafter, 10 μL of the reaction mixture was heated in a water bath to inactivate the enzyme and evaporated and dried, and the PMP derivatization was performed. A substance subjected to the enzyme reaction under the same conditions without adding the inhibitor was used as a blank. In each sample, the concentration required for the compound (I) to inhibit 50% of the enzyme was defined as IC50. An inhibition rate by the compound (I) was calculated using a following equation.
Inhibition rate (%)=[D1−(D2−D3)/1]×100 (Equation 1)
D1: Peak area of glucose in blank sample
D2: Peak area of glucose in each sample after enzyme reaction
D3: Peak area of glucose contained in inhibitor as an impurity
The IC50 value was calculated from a dose-response curve of the compound (I) used as the inhibitor.

[1] = test system: Maltase α-(1-4)glucosidase; test: Maltase inhibition analysis by compound (I) (Table 2); format: biochemical
[2] = biological target: T1, sucrase (sucrose as substrate) (Rattus norvegicus, UniProt P23739); test: Screening of enzyme inhibition, rat intestinal acetone powder crude enzyme, sucrose as substrate; format: biochemical; conditions: 10 μL inhibitor solution (3.4 mg/mL diluted 100 times), five hours
T1 construct: the supernatant was used as a purified enzyme; from tissue; host or cells: rat intestine (acetone powder, supernatant of homogenate)
T1 sequence (P23739 1-1013 limits assumed): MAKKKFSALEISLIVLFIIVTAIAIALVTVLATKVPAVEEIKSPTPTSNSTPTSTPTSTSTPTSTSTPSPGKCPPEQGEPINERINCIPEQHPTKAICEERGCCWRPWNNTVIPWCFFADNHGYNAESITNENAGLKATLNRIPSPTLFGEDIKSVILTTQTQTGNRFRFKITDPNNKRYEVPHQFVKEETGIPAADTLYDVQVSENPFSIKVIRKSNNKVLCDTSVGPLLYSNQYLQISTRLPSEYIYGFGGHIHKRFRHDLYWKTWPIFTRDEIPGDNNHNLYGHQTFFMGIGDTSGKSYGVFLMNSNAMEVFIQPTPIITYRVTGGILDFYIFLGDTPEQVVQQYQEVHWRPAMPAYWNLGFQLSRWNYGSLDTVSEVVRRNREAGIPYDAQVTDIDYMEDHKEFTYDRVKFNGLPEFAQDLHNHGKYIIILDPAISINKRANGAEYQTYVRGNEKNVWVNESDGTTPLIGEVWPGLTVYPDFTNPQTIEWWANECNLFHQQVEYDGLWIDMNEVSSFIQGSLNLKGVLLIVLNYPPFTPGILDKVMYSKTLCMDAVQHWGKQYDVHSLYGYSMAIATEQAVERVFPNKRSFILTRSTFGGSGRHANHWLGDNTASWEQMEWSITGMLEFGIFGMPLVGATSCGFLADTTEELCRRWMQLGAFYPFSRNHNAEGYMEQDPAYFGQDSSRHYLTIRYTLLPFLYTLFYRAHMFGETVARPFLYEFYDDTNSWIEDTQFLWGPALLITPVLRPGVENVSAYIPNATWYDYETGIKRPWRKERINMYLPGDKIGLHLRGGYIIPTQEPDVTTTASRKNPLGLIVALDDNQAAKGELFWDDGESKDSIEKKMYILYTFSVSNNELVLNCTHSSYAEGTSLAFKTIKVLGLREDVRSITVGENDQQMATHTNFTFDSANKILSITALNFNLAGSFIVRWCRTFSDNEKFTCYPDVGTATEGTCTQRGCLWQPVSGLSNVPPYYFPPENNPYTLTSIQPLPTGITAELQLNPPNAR
T1 sequence (P23739 1014-1841 limits assumed): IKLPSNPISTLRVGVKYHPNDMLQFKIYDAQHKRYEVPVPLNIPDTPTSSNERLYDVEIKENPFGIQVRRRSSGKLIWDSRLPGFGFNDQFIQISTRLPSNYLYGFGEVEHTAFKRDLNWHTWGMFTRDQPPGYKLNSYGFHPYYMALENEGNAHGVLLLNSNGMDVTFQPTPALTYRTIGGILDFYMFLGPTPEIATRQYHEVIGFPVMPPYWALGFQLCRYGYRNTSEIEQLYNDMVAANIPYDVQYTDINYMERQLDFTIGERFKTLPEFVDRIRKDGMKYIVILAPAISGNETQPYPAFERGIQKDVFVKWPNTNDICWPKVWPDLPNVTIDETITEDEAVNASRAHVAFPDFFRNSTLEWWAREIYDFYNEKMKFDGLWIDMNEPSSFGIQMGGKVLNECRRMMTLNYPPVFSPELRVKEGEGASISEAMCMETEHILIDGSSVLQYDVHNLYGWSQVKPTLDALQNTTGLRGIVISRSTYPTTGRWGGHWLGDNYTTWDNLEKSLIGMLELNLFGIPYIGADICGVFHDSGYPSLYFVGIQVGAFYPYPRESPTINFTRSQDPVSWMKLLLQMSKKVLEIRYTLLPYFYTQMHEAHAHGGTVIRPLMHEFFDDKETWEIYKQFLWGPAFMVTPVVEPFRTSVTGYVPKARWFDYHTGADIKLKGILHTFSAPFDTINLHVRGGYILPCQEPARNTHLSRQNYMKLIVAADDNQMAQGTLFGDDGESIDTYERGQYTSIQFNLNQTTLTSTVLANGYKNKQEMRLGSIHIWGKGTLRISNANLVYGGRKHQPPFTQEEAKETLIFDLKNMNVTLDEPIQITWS
Protocol: (§1) As a crude enzyme mixture, 50 mg of rat intestinal acetone powder was added to 450 μL of 50 mmol/L phosphate buffer solution (pH 6.0), the mixture was stirred for 30 seconds, and then homogenized. Thereafter, the mixture was centrifuged (10000 rpm, 4° C., 20 minutes), and the supernatant was used as a purified enzyme (50 mg/450 μL). Sucrose and two types of glucose disaccharides (maltose and isomaltose) having different bonds were used as substrates. 3.4 mg of each of the two types of substrates was dissolved in 100 μL of phosphate buffer solution, and each solution was used as a substrate solution. A solution obtained by dissolving 3.4 mg of the compound (I) as a competitive inhibitor in 1 mL of phosphate buffer solution and diluting 100 times, was used as an inhibitor solution. 100 μL of the substrate solution and 10 μL of the inhibitor solution were mixed, and pre-incubation was performed for five minutes. Then, 90 μL of an enzyme solution was added to start incubation. Five hours later, 10 μL of the reaction solution was heated in a water bath for 10 minutes to stop the reaction, followed by the PMP derivatization, and then the capillary electrophoresis. An enzyme reaction solution under the same conditions without the inhibitor was used as a blank. The inhibition rate was calculated for each substrate using the same equation as that in the invertase inhibition analysis.

[3] = test system: maltase (maltose as substrate); test: Screening of enzyme inhibition, rat intestinal acetone powder crude enzyme, maltose as substrate; format: biochemical; conditions: 10 μL inhibitor solution (3.4 mg/mL diluted 100 times), five hours
Protocol: as §1

[4] = biological target: T2, isomaltase (isomaltose as substrate) (Rattus norvegicus, UniProt P23739); test: Screening of enzyme inhibition, rat intestinal acetone powder crude enzyme, isomaltose as substrate; format: biochemical; conditions: 10 μL inhibitor solution (3.4 mg/mL diluted 100 times), five hours
T2 construct: the supernatant was used as a purified enzyme; from tissue; host or cells: rat intestine (acetone powder, supernatant of homogenate)
T2 sequence (P23739 1-1013 limits assumed): as the sequence (P23739 1-1013 limits assumed) above
T2 sequence (P23739 1014-1841 limits assumed): as the sequence (P23739 1014-1841 limits assumed) above
Protocol: as §1

[5] = Oral glucose tolerance testing using sucrose, normal rats; format: in vivo, normal Wistar type rats; conditions: oral co-administration with sucrose 1.5 g/kg, FIG. 7
Protocol: (§2) Glucose tolerance testing of normal Wistar type rats and OLETF rats with diabetes was performed using the compound (I). After fasted for 14 hours, glucose was loaded, and blood taken from tail veins of the rats was subjected to various tests.
(§3) An aqueous solution containing […] of sucrose (hereinafter, also referred to as “A Liquid”) and an aqueous solution containing […] of sucrose and 0.085 mg/ml of the compound (I) (hereinafter, also referred to as “B Liquid”) were prepared. Six normal 7-week-old rats (male) were divided into two groups. In one group, the A liquid was orally administered such that an amount of sucrose was 1.5 g/kg based on the rat body weight. In the other group, the B liquid was orally administered such that the amount of sucrose was 1.5 g/kg based on the rat body weight. Blood was taken from the tail veins of the rats before the administration and in 30 minutes, 60 minutes, 90 minutes, and 120 minutes after the administration, and then plasma was obtained by centrifugation. For the obtained plasma, glucose and insulin were quantified.

[6] = Oral glucose tolerance testing using sucrose, OLETF rats with diabetes; format: in vivo; conditions: oral co-administration with sucrose, FIG. 8
Protocol: as §2, §3

Chain of invertase (P00724 20-532): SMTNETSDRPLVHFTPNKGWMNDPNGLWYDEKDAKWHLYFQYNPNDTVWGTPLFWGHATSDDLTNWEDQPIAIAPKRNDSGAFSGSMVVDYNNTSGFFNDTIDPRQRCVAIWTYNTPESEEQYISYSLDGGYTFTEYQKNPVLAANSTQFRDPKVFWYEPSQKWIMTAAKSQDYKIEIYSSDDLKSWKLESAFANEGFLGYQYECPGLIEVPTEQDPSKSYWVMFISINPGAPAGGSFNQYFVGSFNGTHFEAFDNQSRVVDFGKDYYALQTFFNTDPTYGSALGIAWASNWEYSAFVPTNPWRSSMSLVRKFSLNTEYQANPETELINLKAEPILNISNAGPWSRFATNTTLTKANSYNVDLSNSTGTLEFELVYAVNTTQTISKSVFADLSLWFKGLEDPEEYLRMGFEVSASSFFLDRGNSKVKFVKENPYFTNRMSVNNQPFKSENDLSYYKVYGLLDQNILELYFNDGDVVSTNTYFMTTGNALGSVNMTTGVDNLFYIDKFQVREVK

For `OCC1OC(CO)(OCC2OC(O)C(O)C(O)C2O)C(O)C1O` (centres unmarked) [compound (I), Maplebiose], which “Peak response (Glc)” value (invertase; 1 μg inhibitor) is on record?
The value was 18.2.

What about the “Peak response (Glc)” value (invertase; 10 μg inhibitor) of the same compound?
The value was 17.2.

And the “Peak response (Glc)” value (invertase; 100 μg inhibitor)?
Its value is 23.1.

What about the “Inhibition (%)” value ([1]; 1 μg inhibitor) of the same compound?
The value was 39.1%.

And the “Inhibition (%)” value ([1]; 10 μg inhibitor)?
Its value is 49.4%.

What about the “Inhibition (%)” value ([1]; 100 μg inhibitor) of the same compound?
The value was 54.2%.

And the IC50 ([1]; calculated using a straight line from concentrations and inhibition rates)?
The IC50 was 1720 µM.

What about the Inhibition rate [2] of the same compound?
Its Inhibition rate is 12.3%.

And the Inhibition rate [3]?
The Inhibition rate was 9.4%.

What about the Inhibition rate [4] of the same compound?
The Inhibition rate was 3.3%.

And the “changes with time of insulin” value [5]?
Its value is “similar”.

And the “plasma glucose value vs rats not administered with the compound (I)” value [5]?
Its value is “significantly lower”.

And the “changes with time of insulin” value [6]?
The value was “similar”.

And the “plasma glucose value relative to rats not administered with the compound (I)” value [6]?
The value was “about 50%”.
